Experimental data reported in PMC4104761, “Identification of a novel lytic peptide for the treatment of solid tumours” (Genes & Cancer, 2014).

Experiments:
[1] = Surface plasmon resonance (SPR) binding to liposomes; conditions: BIAcore 3000, L1 chip, curve fitting
Protocol: SPR was used to quantify the binding of Cypep-1 to phospholipid model membranes of different compositions at neutral pH (pH 7.4) and a temperature of 25 °C. 100 nm liposomes made of egg yolk […] (EYL; L-α-phosphatidylcholine; 95% purity) were employed to represent amphitropic, neutral membranes, while liposomes composed of both pig brain L-α-phosphatidylserine (PBPS) and EYL (from Avanti Polar Lipids Inc., Alabaster, Alabama, USA), with PBPS:EYL in a 1:1 M: M mixture, represented acidic, negatively charged membranes. […] [79]. The SPR analyses were carried out on a BIAcore 3000 instrument (BIAcore AB, Uppsala, Sweden) as described in Halskau et al., using a L1 sensor chip from BIAcore (BIAcore AB, Uppsala, Sweden).

[2] = Biodistribution of 125I-Cypep-1 after i.v. injection; assay type: in vivo, Wistar rat; conditions: rat
Protocol: The radio labelling of Cypep-1 was performed with ^125I, according to the Iodo-Gen method as described by Fraker et al.. The obtained ^125I-Cypep-1 stock solution was stored in the dark at 4°C for 48 hours prior to validation by reversed phase chromatography, using a 4.6 × 50 mm Dionex Proswift RP-2H column on an Ettan LC System (GE Healthcare, Oslo, Norway) in line with a Radiomatic 610TR Flow System Analyzer by Perkin Elmer (PerkinElmer, Waltham, MA) for gamma detection.
The plasma activity and biodistribution of ^125I-Cypep-1 was evaluated in a single experiment. An adult female Wistar rat of 260 g body weight was anaesthetized using 15 mg of Pentobarbital i.p.. Its body temperature was maintained at 37°C, using both a heating pad and an infrared lamp. Two PE-50 polyethylene catheters were placed into the femoral vein for the bolus injection of Cypep-1 and one into the femoral artery for blood sampling. 50 µl of the ^125I-Cypep-1 stock solution dissolved in 500 µl 0.9% NaCl were injected i.v., and a total of six arterial blood samples (100 µl per sample) were collected at 0.25, 1, 5, 10, 15 and 20 min following the ^125I-Cypep-1 administration. The animal was sacrificed under deep anaesthesia with an i.v. bolus injection of 0.5 ml saturated KCl. The tissue and plasma samples were harvested immediately and counted for ^125I-activity in a gamma-counter (LKB Wallac 1285, Turku, Finland). The peptide distribution volumes in the various body tissues were calculated as the ^125I-activity per gram tissue sample divided by the time-averaged plasma ^125I-activity during the 20 minutes clearance period (*= plasma equivalent space in ml/g tissue wet weight).

[3] = Liposome leakage assay (ANTS/DPX fluorescence); assay type: biochemical; conditions: 25°C, pH 7.4, fluorescence at 510 nm, triplicate; for leakage of ANTS from liposomes: 0 to 90 µg/ml
Protocol: To assess the membranolytic effect of Cypep-1 on the integrity of phospholipid model membranes, liposome leakage assays monitored by fluorescence spectroscopy were performed on 200 nm liposomes as described earlier. […] (purchased from CPC Scientific, San Jose, CA) was used as control in the leakage assays (Peptide A).
Negatively charged PBPS: EYL (1:1 mixture) as well as neutral pure EYL vesicles were used, in which both liposome types encapsulated the fluorochrome ANTS (8 aminonaphtalene-1,3,6 trisulfonic acid) and its corresponding quencher DPX (p-xylene-bis[N-pyridinium bromide]). In principle, a disruption of the liposomes' bi-layer induces leakage of the fluorophore ANTS. This entails an increase in fluorescence at 510 nm. All fluorescence spectra were recorded at 25°C and pH 7.4 on a Cary Eclipse Fluorescence Spectrophotometer (Varian Optical Spectroscopy Instruments, Mulgrave, Victoria, Australia). The respective titrations with Cypep-1 and the control Peptide A were performed in concentrations ranging from 0 µg/ml to 90 µg/ ml (0 µM to 26 µM). The fluorescence was measured for each concentration point of the concentration series, and all measurements were performed in triplicate. At the end of each measurement, Triton X-100 was added to a final concentration of 2 mM, to obtain the maximum membrane leakage. The resulting maximum fluorescence at 510 nm is defined as 100%, i.e. complete liposome breakdown. The induced leakages of the fluorophore ANTS due to exposure to the peptides were then evaluated as a percentage of its complete release after Triton X-100 exposure. The initial fluorescence intensity of the respective liposome solutions was defined as 0% leakage.

normal human cell lines = experiment: MTT viability assay, average of normal human cell lines; assay type: cell-based; conditions: 20 µg Cypep-1/ml, 60 min exposure
Protocol: Cypep-1 was tested in various concentrations on a total of 17 cell lines, which included 13 human and 1 murine tumour cell line(s), as well as 3 normal human cell lines. Listed in detail: 4 human osteosarcoma (U2OS, SaOS2, HOS and MNNG-HOS), 6 human glioblastoma (A172, GaMg, LN18, U87, U373 and T98G) and 3 human mammary carcinoma cell lines (MCF7, AU565 and MDA-MB-468) as well as an additional murine mammary carcinoma cell line (4T1). Furthermore, 3 normal human cell lines were included: 2 normal human fibroblast cell lines (HFF1 and 142Br) as well as normal human osteoblasts (HOB).
MTT proliferation assays were performed on all cell lines (with the exception of 142Br (human skin fibroblasts)), using monolayers of 15 000 cells in sterile 96 well tissue culture plates (Nunc™, Roskilde, Denmark), respectively. All cells were incubated with Cypep-1 dissolved in 0.9% NaCl, at the following concentrations: 0.1, 0.5, 1.0, 5, 10, 15, 20, 25, 30 and 35µg of Cypep-1 per ml and assayed after 15, 30, 45, 60, 75, 90, 180, 270 and 360 min.

[4] = 125I-Cypep-1, i.v., 20 min after administration, gamma counting, single animal

Sequence: YGRKKRRQRRRGKTLRVAKAIYKRYIE [Cypep-1]
- peptide concentration of half-maximal binding (S0.5) ([1]; 100 nm EYL liposomes, pH 7.4, 25 °C): 39.1 ± 5.3 µg/mL
- peptide concentration of half-maximal binding (S0.5) ([1]; 100 nm liposomes PBPS:EYL 1:1, pH 7.4, 25 °C): 16.2 ± 4.4 µg/mL
- tissue distribution, cerebellum [2, 4]: 0.00 ml/g tissue wet weight
- tissue distribution, cerebrum [2, 4]: 0.01 ml/g tissue wet weight
- tissue distribution, colon [2, 4]: 0.14 ml/g tissue wet weight
- tissue distribution, eye [2, 4]: 0.02 ml/g tissue wet weight
- tissue distribution, jejunum [2, 4]: 0.17 ml/g tissue wet weight
- tissue distribution, kidneys (per kidney) [2, 4]: 1.685 ml/g tissue wet weight
- tissue distribution, liver [2, 4]: 11.74 ml/g tissue wet weight
- tissue distribution, lungs [2, 4]: 0.38 ml/g tissue wet weight
- tissue distribution, muscle tissue [2, 4]: 0.02 ml/g tissue wet weight
- tissue distribution, spleen [2, 4]: 4.89 ml/g tissue wet weight
- tissue distribution, stomach [2, 4]: 0.04 ml/g tissue wet weight
- tissue distribution, thyroid gland [2, 4]: 0.13 ml/g tissue wet weight
- passage of the blood-brain-barrier ([2]; concluded from very low concentrations in organs of the central nervous system, i.v.): did not pass the blood-brain-barrier
- leakage of ANTS from liposomes ([3]; 200 nm EYL liposomes): significant leakage of ANTS
- leakage of ANTS from liposomes ([3]; 200 nm liposomes PBPS:EYL 1:1): significant leakage of ANTS
- EC50 ([3]; ANTS/DPX leakage, 200 nm liposomes PBPS:EYL 1:1, read-out: S0.5, concentration necessary to achieve membrane disruption): 8.3 ± 0.5 µM
- surviving fraction, average of normal human cell lines (normal human cell lines): 56%
